Data reported in the supplement of paper PMC11451515.

Tested on: SEM cells
Experiment: cell viability relative to DMSO control; higher = less cytotoxic
Details: 48 h
Outline: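 Viability is expressed as a percentage of DMSO wells within each plate, and cell-free wells serve as background. Seeding densities in the 1536-well plates (5 μl) were 500 cells/well for NOMO1 or SEM leukemia cells and 1000 cells/well for P12-Ichikawa. Each line was adapted for at least four passages in each medium. Library compounds in DMSO were pin-dosed at 47 μM to 0.79 nM (11 points, threefold), and CellTiter-Glo One luminescence was read after 48 h at 37°C.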

[1] = HPLM + 10% dialyzed FBS, 0.000781 µM
[2] = HPLM + 10% dialyzed FBS, 0.00234 µM
[3] = HPLM + 10% dialyzed FBS, 0.00702 µM
[4] = HPLM + 10% dialyzed FBS, 0.0211 µM
[5] = HPLM + 10% dialyzed FBS, 0.0632 µM
[6] = HPLM + 10% dialyzed FBS, 0.19 µM
[7] = HPLM + 10% dialyzed FBS, 0.569 µM
[8] = HPLM + 10% dialyzed FBS, 1.71 µM
[9] = HPLM + 10% dialyzed FBS, 5.12 µM
[10] = HPLM + 10% dialyzed FBS, 15.4 µM
[11] = HPLM + 10% dialyzed FBS, 46.1 µM
[12] = RPMI 5 mM glucose + 10% FBS, 0.000781 µM
[13] = RPMI 5 mM glucose + 10% FBS, 0.00234 µM
[14] = RPMI 5 mM glucose + 10% FBS, 0.00702 µM
[15] = RPMI 5 mM glucose + 10% FBS, 0.0211 µM
[16] = RPMI 5 mM glucose + 10% FBS, 0.0632 µM
[17] = RPMI 5 mM glucose + 10% FBS, 0.19 µM
[18] = RPMI 5 mM glucose + 10% FBS, 0.569 µM
[19] = RPMI 5 mM glucose + 10% FBS, 1.71 µM
[20] = RPMI 5 mM glucose + 10% FBS, 5.12 µM
[21] = RPMI 5 mM glucose + 10% FBS, 15.4 µM
[22] = RPMI 5 mM glucose + 10% FBS, 46.1 µM
[23] = RPMI 5 mM glucose + 10% dialyzed FBS, 0.000781 µM
[24] = RPMI 5 mM glucose + 10% dialyzed FBS, 0.00234 µM
[25] = RPMI 5 mM glucose + 10% dialyzed FBS, 0.00702 µM
[26] = RPMI 5 mM glucose + 10% dialyzed FBS, 0.0211 µM
[27] = RPMI 5 mM glucose + 10% dialyzed FBS, 0.0632 µM
[28] = RPMI 5 mM glucose + 10% dialyzed FBS, 0.19 µM
[29] = RPMI 5 mM glucose + 10% dialyzed FBS, 0.569 µM
[30] = RPMI 5 mM glucose + 10% dialyzed FBS, 1.71 µM
[31] = RPMI 5 mM glucose + 10% dialyzed FBS, 5.12 µM
[32] = RPMI 5 mM glucose + 10% dialyzed FBS, 15.4 µM
[33] = RPMI 5 mM glucose + 10% dialyzed FBS, 46.1 µM

Compound	cell viability [1]	cell viability [2]	cell viability [3]	cell viability [4]	cell viability [5]	cell viability [6]	cell viability [7]	cell viability [8]	cell viability [9]	cell viability [10]	cell viability [11]	cell viability [12]	cell viability [13]	cell viability [14]	cell viability [15]	cell viability [16]	cell viability [17]	cell viability [18]	cell viability [19]	cell viability [20]	cell viability [21]	cell viability [22]	cell viability [23]	cell viability [24]	cell viability [25]	cell viability [26]	cell viability [27]	cell viability [28]	cell viability [29]	cell viability [30]	cell viability [31]	cell viability [32]	cell viability [33]
Clc1cc(Cl)cc(CNc2ncncc2-c2ccc3c(c2)OCO3)c1	93.3%	101%	95.7%	97.4%	89%	104%	92.2%	105%	90.4%	89.1%	29.7%	100%	97.4%	98.4%	94.5%	92.7%	110%	103%	86.6%	92.3%	86.6%	5.5%	90.5%	95.3%	102%	99.7%	90.5%	96.8%	80.4%	100%	105%	86.2%	28.3%
ClC1=CC(=CC=C1)N2CCN(CCCN3\N=C4\C=C/C=C\N4C3=O)CC2	79.3%	107%	107%	112%	121%	130%	127%	131%	140%	131%	145%	117%	126%	123%	138%	140%	138%	146%	157%	150%	165%	127%	–	–	–	–	–	–	–	–	–	–	–
CCc1c(C(=O)C(N)=O)c2c(OCC(=O)O)cccc2n1Cc1ccccc1	103%	93.2%	94.3%	107%	98.7%	104%	102%	98.2%	90.8%	88.3%	84.5%	101%	100%	116%	110%	90.8%	98.4%	111%	111%	114%	88.4%	82.6%	92.9%	102%	104%	116%	104%	105%	123%	92.7%	106%	91.9%	89.3%
CC(C)(C)C(=O)Oc1ccc([S+](=O)([O-])Nc2ccccc2C(=O)NCC(=O)O)cc1	107%	106%	111%	109%	116%	122%	74.3%	58.9%	123%	128%	124%	95.5%	93.9%	88.9%	92.8%	104%	107%	95.1%	48.8%	91.6%	96.7%	90.4%	106%	99.3%	104%	123%	94.6%	116%	93.7%	50.6%	98.8%	109%	124%
CC(C)[C@@H](C[S+](=O)([O-])C(C)C)N1C(=O)[C@@](C)(CC(=O)O)C[C@H](c2cccc(Cl)c2)[C@H]1c1ccc(Cl)cc1	124%	107%	125%	117%	115%	106%	85.9%	77.1%	54.3%	31.8%	18.7%	–	–	–	–	–	–	–	–	–	–	–	127%	109%	121%	110%	128%	113%	100%	70.9%	47.8%	26.5%	18.5%
CN1CCC(CC1)COC2=CN=C(N=C2)C3=CC(=CC=C3)CN4/N=C(\C=C/C4=O)C5=CC(=CC=C5)C#N	78.8%	105%	98%	102%	112%	117%	108%	104%	107%	89.9%	92.7%	67.6%	87.1%	85.4%	66.2%	67.5%	75.6%	79.9%	74.7%	66.5%	74.9%	73.2%	69.8%	103%	110%	114%	99.2%	91.4%	115%	104%	106%	87.3%	105%
c1cc(CN2CCCNCCNCCCNCC2)ccc1CN1CCCNCCNCCCNCC1	83.6%	85.7%	86.8%	20.1%	94.3%	101%	89.8%	96.9%	106%	116%	110%	70.8%	93.3%	83.8%	13.6%	85.7%	92.9%	87.1%	90.8%	94.1%	91.5%	89%	94.1%	84.4%	94.2%	20%	117%	118%	106%	115%	102%	125%	119%
C[C@@H]1CN[C@H]2[C@@H](C)[C@@]\3(CC[C@H]\4[C@@H]5C/C=C6/C[C@@H](O)CC[C@]6(C)[C@H]5CC4=C3C)O[C@@H]2C1	78.3%	122%	119%	119%	129%	118%	127%	114%	114%	98.4%	84.6%	77.7%	119%	132%	141%	118%	115%	117%	120%	105%	109%	93.5%	–	–	–	–	–	–	–	–	–	–	–
CN1\C(=C(\O)C2=C(C=CS2)[S+]1([O-])=O)C(=O)NC3=CC=CC=N3	106%	108%	112%	103%	114%	112%	109%	105%	106%	98.4%	102%	95%	107%	112%	100%	114%	101%	112%	103%	103%	108%	90.9%	110%	95.5%	112%	108%	107%	112%	104%	112%	106%	106%	103%
COc1cc2c(Nc3ccc(Cl)c(Cl)c3F)ncnc2cc1OC[C@@H]1C[C@@H]2CN(C)C[C@@H]2C1	105%	118%	121%	120%	98.8%	113%	100%	93.3%	56%	47%	10.1%	98%	117%	121%	144%	118%	118%	101%	64.2%	44.4%	48%	5.51%	112%	109%	133%	129%	119%	124%	110%	75.8%	67%	55.7%	6.25%
CC\1=C(C(=O)N(\C=C1)C2=CC=C(C=C2)C3=NC=CO3)/C4=CC5=CN=C(N)N=C5C=C4	96.2%	95%	109%	99.8%	100%	103%	76.2%	84%	40.8%	36%	27%	87.3%	115%	127%	121%	108%	111%	97.4%	101%	38.5%	29.5%	21.3%	90%	104%	118%	102%	97.1%	97.4%	68.9%	72.1%	26.1%	20.4%	19.1%
CCOC(=O)[C@H](CCc1ccccc1)N[C@@H](C)C(=O)N1CCC[C@H]1C(=O)O	107%	110%	102%	97.3%	119%	123%	107%	115%	113%	112%	113%	106%	112%	104%	109%	106%	112%	96.6%	94.5%	113%	120%	94.8%	119%	105%	108%	109%	111%	103%	94.4%	101%	103%	99.2%	98.5%
OC[C@H]1O[C@H]([C@@H](F)[C@@H]1O)N2\C=C/C(=O)NC2=O	106%	42.5%	111%	109%	108%	117%	122%	112%	90.8%	109%	106%	93.2%	113%	110%	101%	90.1%	105%	112%	97%	93.5%	91.2%	95.9%	105%	48.6%	99.8%	91.6%	96.4%	102%	99.1%	90.7%	74%	100%	87.5%
CC(=O)NC(CS)C(=O)O (stereo not given)	71.5%	71.7%	75.7%	63.5%	82.3%	62.5%	66.7%	84.1%	90%	36.1%	62.3%	93.5%	93.7%	87.8%	99.1%	99.8%	90.8%	95.4%	116%	114%	27.7%	29.2%	76.7%	57.8%	86.2%	65.5%	88.4%	64%	83.6%	78.7%	108%	30.9%	54.9%
Cn1cc(-c2ccc3nnc(C(F)(F)c4ccc5ncccc5c4)n3n2)cn1	103%	117%	115%	99.6%	111%	108%	113%	106%	106%	95.4%	82%	123%	115%	120%	112%	126%	132%	126%	123%	114%	121%	81.5%	96%	114%	104%	102%	105%	111%	98.6%	97.2%	94.8%	90.5%	67.2%
N=C(N)NC(=O)c1nc(Cl)c(N)nc1N	101%	104%	120%	111%	114%	104%	136%	114%	129%	124%	123%	101%	107%	108%	108%	118%	119%	117%	113%	113%	114%	120%	101%	122%	110%	108%	126%	124%	120%	126%	119%	116%	121%
